From patent US20250325469A1, “Inhibitors of atp synthase - cosmetic and therapeutic uses” (priority 2021, published 2025)
Where two headings read alike, the source gives them in different places. Where no end group is shown, it is not given here. [ ]: non-standard residue; d: D form.

Tests used:
[1] = cited from earlier work
[2] = 5.5 (±1.7) ug/kg/min i.v. with inhaled nitric oxide (5 p.p.m.), across all subjects [183]; cited from earlier work
[3] = cited from earlier work; remark: listed apart in the source
[4] = cited from earlier work; remark: listed apart in the source
[5] = cited from earlier work; remark: listed apart in the source
[6] = rats, radioactively labelled [151]; cited from earlier work
cells [7] = settings: variant with side-chain chiral amino acids swopped; cited from earlier work
cells [8] = settings: cited from earlier work
[9] = mouse, in vivo; cited from earlier work
F1F0 ATP hydrolysis [10] = target: T1, F1F0 ATP hydrolysis (Mus musculus, UniProt P56480+Q03265); settings: cited from earlier work
T1 construct: F1F0 ATP hydrolysis is 35% less in brain mitochondria isolated from H+/T+ than wild-type mice; from tissue; host or cells: mitochondria isolated from brain of wild-type and H+/T+ double transgenic mice

F1F0 ATP hydrolysis [11] = target: T1, F1F0 ATP hydrolysis; settings: brain mitochondria of H+/T+ vs wild-type mice [130]; cited from earlier work
[12] = tested on: oxidative phosphorylation; settings: State 3 respiration, H+/T+ vs wild-type [130]; cited from earlier work
[13] = tested on: oxidative phosphorylation; settings: cited from earlier work
ROS (superoxide) = experiment: MitoSOX ROS (superoxide) signal in cultured cortical neurons of H+/T+ mice; format: cell-based, mouse; settings: H+/T+ vs wild-type mitochondria, corrected for MitoSOX accumulation
Text: (FIG. 6B) Experiments with cortical neurons in culture, after being cultured for 9-10 days, after being extracted from mouse embryos. […] As in FIG. 6A. But this time in cultured cortical neurons from the mice (embryos), wherein the mitochondria of H+/T+ mice have a more hyperpolarized ΨIM (accumulate more TMRM^+) than wild-type. But, as in FIG. 6A, have a more depolarized ΨIM upon FCCP/respiratory chain inhibitor (antimycin A/rotenone) administration. A typical value for ΨIM in normal mitochondria is −140 mV and if we equate the 5 a.u. value for wild-type in the 2nd panel with −140 mV, then the 6 a.u. value of H+/T+here in the 2nd panel is −168 mV. This ΨIM disparity means that H+/T+ mitochondria accumulates more MitoSOX ROS (superoxide) reporting compound in their mitochondrial matrix, wherein this disparity can be calculated using the equation presented earlier, and this disparity is shown here, in the 3rd panel. With this MitoSOX accumulation disparity, one would expect a greater MitoSOX signal from H+/T+ mitochondria, to wild-type mitochondria, in the proportion shown in the 3rd panel. But what is actually experimentally observed is in the 4th panel. Thence H+/T+ mitochondria must produce 66% less ROS (superoxide) than wild-type, which fits with their lower oxidative respiration rate observed in (FIG. 6A). […]

F1F0 ATP hydrolysis [14] = target: T1, F1F0 ATP hydrolysis; settings: colon mitochondria, I/T Tet-on mice [136]; cited from earlier work
[15] = tested on: oxidative phosphorylation; settings: colon mitochondria, I/T Tet-on mice [136]; cited from earlier work
[16] = target: bovine F1F0 ATP hydrolysis (Bos taurus, UniProt P00829+P19483); settings: cited from earlier work
[17] = COPD patients, 100 mg oral daily for 1 year, at year end
[18] = 7.47 ug/kg/min for 2 hours (60 mg), at the end of the infusion period
[19] = COPD patients, 100 mg oral daily for 1 year [168]

C=CCNc1nc(NCC=C)nc(N2CCN(C(c3ccc(F)cc3)c3ccc(F)cc3)CC2)n1 [almitrine dimesylate]
plasma [almitrine] ([1]; COPD patients, 50 mg twice daily for 8 weeks, 2 weeks after the study): 104 ng/mL | plasma [almitrine] before the morning dose ([1]; COPD patients, 50 mg twice daily, day 14): 93 ng/mL | plasma [almitrine] before the morning dose ([1]; COPD patients, 50 mg twice daily, day 28): 134 ng/mL | plasma [almitrine] before the morning dose ([1]; COPD patients, 50 mg twice daily, day 42): 148 ng/mL | plasma [almitrine] before the morning dose ([1]; COPD patients, 50 mg twice daily, day 56): 171 ng/mL | average trough plasma [almitrine] ([1]; COPD patients, 75 mg oral daily for 6 months, at study end): 302 ng/mL | mean plasma [almitrine] ([1]; COPD patients, 100 mg oral daily 2 months then 1 month none, cycle for 1 year, at end): 285 ng/mL | mean plasma [almitrine] [1, 17]: 409.35 ng/mL | trough plasma [almitrine] [1, 17]: 301.8 ng/mL | plasma [almitrine] ([1]; COPD patients, 100 mg twice daily for 8 weeks, 2 weeks after the study): 311 ng/mL | plasma [almitrine] before the morning dose ([1]; COPD patients, 100 mg twice daily, day 14): 268 ng/mL | plasma [almitrine] before the morning dose ([1]; COPD patients, 100 mg twice daily, day 28): 409 ng/mL | plasma [almitrine] before the morning dose ([1]; COPD patients, 100 mg twice daily, day 42): 442 ng/mL | plasma [almitrine] before the morning dose ([1]; COPD patients, 100 mg twice daily, day 56): 572 ng/mL | plasma [almitrine] ([1]; COPD patients, 100-200 mg daily, those presenting peripheral neuropathy, at 3 months): 344 ng/mL | plasma [almitrine] ([1]; COPD patients, 100-200 mg daily, those presenting peripheral neuropathy, at 12 months): 617 ng/mL | plasma [almitrine] ([1]; COPD patients, 100-200 mg daily, those without peripheral neuropathy, at 3 months): 249 ng/mL | plasma [almitrine] ([1]; COPD patients, 100-200 mg daily, those without peripheral neuropathy, at 12 months): 387 ng/mL | plasma [almitrine], two 50 mg doses per day vs a single 100 mg oral dose ([1]; COPD patients, long term [167]): 2 to 3 times higher | time of peak plasma concentration of almitrine after consuming ([1]; human, oral [151]): 3.5 ± 0.7 h | oral dose bioavailable ([1]; on average across subjects): 85% | increase of arterial pO2 [2]: > 30% | lowest observed almitrine plasma level [3, 18]: 242 ng/mL | mean almitrine plasma level [3, 18]: 327 ng/mL | mean almitrine plasma level ([3]; 7.47 ug/kg/min for 2 hours, 15 minutes afterwards): 157 ng/mL | mean almitrine plasma level ([3]; 7.47 ug/kg/min for 2 hours, 30 minutes afterwards): 154 ng/mL | mean almitrine plasma level ([3]; 7.47 ug/kg/min for 2 hours, 60 minutes afterwards): 105 ng/mL | mean almitrine plasma level ([3]; 7.47 ug/kg/min for 2 hours, 120 minutes afterwards): 67 ng/mL | mean almitrine plasma level ([3]; 7.47 ug/kg/min for 2 hours, 600 minutes afterwards): 55 ng/mL | adverse effects ([4]; COPD patients, 75 mg oral daily for 6 months): no adverse effects | increase in occurrence of a nervous system disorder vs placebo control [4, 19]: 4% | increase in occurrence of paraesthesia vs placebo control [4, 19]: 5% | increase in occurrence of polyneuropathy vs placebo control [4, 19]: 3.6% | incidence of peripheral neuropathy, almitrine vs control group ([4]; COPD patients, 100-200 mg daily for a year [151]): 5 times higher | time at which peripheral neuropathy started to manifest, on average ([4]; COPD patients, 100-200 mg daily for a year, in a minority [151]): 7 months | safety ([4]; healthy subjects, 400 mg oral per day, short term [163]): safe

C=CCNc1nc(NCC=C)nc(N2CCN(C(c3ccc(F)cc3)c3ccc(F)cc3)CC2)n1 [almitrine]
adverse side-effect ([5]; 8.3 μg/kg/min for 30 minutes [176]): no adverse side-effect was observed | plasma lactate concentrations ([5]; 16 μg/kg/min infusion): remained within the normal range in all patients | deleterious effects ([5]; 16.7 ug/kg/min for 1 hour): without deleterious effects | tissue accumulation [6]: especially accumulated in the lungs | mean plasma concentration of almitrine ([3]; 8 μg/kg/min for 20 minutes, during infusion): 325 ng/mL | highest observed plasma almitrine concentration ([3]; 16 μg/kg/min for 1 hour [177]): ~1,600 ng/ml | plasma almitrine concentration, all subjects but one ([3]; 16 μg/kg/min for 1 hour, 2 hours after the infusion stopped [177]): below 400 ng/ml | plasma almitrine concentration, all subjects ([3]; 16 μg/kg/min for 1 hour, by 12 hours [177]): below 200 ng/ml | plasma almitrine concentration, all subjects ([3]; 16 μg/kg/min for 1 hour, during infusion [177]): greater than 600 ng/ml | mean plasma concentration of almitrine ([3]; 16 μg/kg/min, 20 minutes into the infusion): 659 ng/mL

Kkwkmrrnqfwvkvqr (K[dK][dW][dK][dM][dR][dR][dN][dQ][dF][dW][dV][dK][dV][dQ][dR]; not fully specified (residue 1); printed as Kkwkmrrnqfwvkvqr; also: retroinverse) [Retroinverse penetratin]
cellular penetration compared with penetratin (cells [7]): greater cellular penetration than penetratin | cellular toxicity (cells [8]): some cellular toxicity

B1: human H49K IF1 protein: mutant human IF1 protein with a H49K substitution, expressed as transgene in mice (protein, UniProt Q9UII2 26-106, looked up, variant H49K)
ATPase inhibitor, …: GSDQSENVDRGAGSIREAGGAFGKREQAEEERYFRAQSREQLAALKKHKEEEIVHHKKEIERLQKEIERHKQKIKMLKHDD
modifications: expressed as transgene in mice
weight, life span and cage behavior [9]: no differences in weight, life span and cage behavior when compared to controls after one year of follow up | inhibition of F1F0 ATP hydrolysis capability (F1F0 ATP hydrolysis [10]; Tet-off mice [135]): 25% | inhibition of F1F0 ATP hydrolysis capability (F1F0 ATP hydrolysis [10]; Tet-on mice [135]): 40% | reduction of F1F0 ATP hydrolysis capability (F1F0 ATP hydrolysis [11]): 35% | less O2 consumption [12]: ~60% | decrease of State 3 respiration rate ([13]; Tet-off mice [135]): 37% | decrease of State 3 respiration rate ([13]; Tet-on mice [135]): 44% | less ROS (superoxide) produced (ROS (superoxide)): 66%

B2: human IF1 protein: Non-mutant human IF1 protein expressed as transgene in mouse intestine cells (protein, UniProt Q9UII2 26-106, looked up)
ATPase inhibitor, …: GSDQSENVDRGAGSIREAGGAFGKREQAEEERYFRAQSREQLAALKKHHEEEIVHHKKEIERLQKEIERHKQKIKMLKHDD
inhibition of F1F0 ATP hydrolysis capability (F1F0 ATP hydrolysis [14]): 35% | decrease of oligomycin sensitive respiration rate [15]: 60%

B3: yeast IF1 protein: IF1 protein sequence from yeast (protein, UniProt P01097 23-85, looked up)
F(1)-ATPase inhibitor IF(1), …: SEGSTGTPRGSGSEDSFVKRERATEDFFVRQREKEQLRHLKEQLEKQRKKIDSLENKIDSMTK
inhibition of bovine F1F0 ATP hydrolysis [16]: can inhibit
